Laboratory results taken from PubChem BioAssay AID624134 (Broad Institute, 2012).
Where “and” joins values, the source holds several entries; their conditions need not be identical. Equal values may be shown once. Records with an inconclusive call do not appear. Calls of active or inactive are those of the source.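 Rule for the calls: active = signal drop with fitted half-maximal concentration no higher than twice the top valid tested concentration; inconclusive = flat curve with 30 to 70% signal loss, or poor fit; inactive = the rest, including signal rises and flat curves within 30%.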

Tested on: HepG2 viability, CellTiter-Glo ATP luminescence, 48 h
Assay: HepG2 cell cytotoxicity, dose response, cytotoxicity control for Shn3 inhibitor project, CellTiter-Glo, cherry-picked (AID 624134)

Structure (SMILES) | AC50
CC(=O)OC[C@]12CCC(C)=C[C@H]1O[C@@H]1[C@H](O)[C@@H](OC(C)=O)[C@@]2(C)[C@]12CO2 | > 70 µM (inactive)
C[C@H]1[C@@H](OS(=O)(=O)O)C[C@@H]2C[C@H]([C@@H](O)c3cc(=O)[nH]c(=O)[nH]3)NC3=NC[C@H]1N32 | 8.33 µM
CC(=O)OCC12CC(OC(=O)CC(C)C)C(C)=CC1OC1C(O)C(OC(C)=O)C2(C)C12CO2 (stereo not given) | > 70 µM (inactive)
CC(=O)OC1C(=O)OCC23CCC4(C)OC4C2OC2CC(OC(=O)C=CC=CC(=O)OCCC1C)C3(C)C21CO1 (stereo not given) | > 70 µM (inactive)
CCN1CCN(Cc2ccc(NC(=O)c3cc(NC(=O)c4cc5cccc(OC)c5o4)cc(OC)c3)cc2C(F)(F)F)CC1 | 18.9 µM and 9.13 µM
